# Values joined by “and” are separate entries in the source; they are usually repeats but may differ in a detail not shown here. Identical values can stand only once. Non-standard residues stand in square brackets, D forms with d. Residues, ends and D or L forms follow the SMILES beside them. Pra = C#CC[C@H](N)C(=O)O
# Tests used:
# [1] = target: SARS-CoV-2 Alpha RBD (Severe acute respiratory syndrome coronavirus 2, UniProt P0DTC2); assay: biochemical; format: binding
# [2] = target: SARS-CoV-1 RBD (Severe acute respiratory syndrome coronavirus, UniProt P59594); assay: biochemical; format: binding
# [3] = target: SARS-CoV-1 spike RBD RBD (Severe acute respiratory syndrome coronavirus), P59594; assay: SPR; details: modification not given
Molecule,Kd [1] [nM],kon ([1]; read-out: ka) [M⁻¹ s⁻¹],ka ([1]; spr),Kd [2] [nM],kon ([2]; read-out: ka) [M⁻¹ s⁻¹],Kd [3] [nM]
C#CC[C@H](NC(=O)[C@H](CC(C)C)NC(=O)[C@H](CCCCN)NC(=O)[C@@H](NC(=O)[C@@H](NC(=O)[C@H](CC(C)C)NC(=O)[C@H](CC(N)=O)NC(=O)[C@H](Cc1ccc(O)cc1)NC(=O)[C@@H](NC(=O)[C@H](CCC(=O)O)NC(=O)[C@H](Cc1ccc(O)cc1)NC(=O)[C@H](CC(C)C)NC(=O)[C@@H]1CCCN1C(=O)[C@H](Cc1ccc(O)cc1)NC(=O)[C@H](CCSC)NC(=O)[C@H](CCC(N)=O)NC(=O)[C@H](C)NC(=O)[C@H](CC(C)C)NC(=O)[C@@H](NC(=O)[C@H](CO)NC(=O)[C@@H](N)CCC(N)=O)[C@@H](C)O)[C@@H](C)CC)[C@@H](C)O)C(C)C)C(N)=O [a2] (H-QSTLAQMYPLYEIYNLTVKL[Pra]-NH2),89 ± 5,59300,"5,66e4 M-1s-1 and 6,08e4 M-1s-1",21 ± 5,85900,–
QSTLAQMYPLYEIYNLTVKL [ACE2 epitope a2],–,–,–,–,–,21
